# Columns and labels:
# KRAS G12C = molecular target: T1, KRAS G12C (Homo sapiens, UniProt P01116, G12C); test: KRAS G12C NEA-HTRF experiment (SOS1-catalyzed displacement of GDP by GTP); type: biochemical
# T1 construct: purchased Reactionbiology
# Procedure, shortened: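 His-tagged KRAS G12C preloaded with DY647-GDP was preincubated 15 min at 20 °C with compound, then exchanged with SOS1 (0.2 μM working solution) and GTP (200 μM working solution) for 2 h at 20 °C in the dark. HTRF 665/615 nm ratio with anti-His-Tb was normalised to T0 and no-compound controls; IC50 by four-parameter fit.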
# [1] = system: phosphorylated ERK downstream of KRAS G12C in MIA PaCa2 cells; test: Cell p-ERK detection experiment (HTRF) in MIA PaCa2; type: cell-based, human; details: Homo sapiens, MIA PaCa-2, 2 h, MIA PaCa2 cells, 2 hours with compound, Advance ERK phospho-T202/Y204 HTRF kit; read-out: p-ERK IC50
# Procedure, shortened: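 Phospho-ERK (T202/Y204) measured by HTRF after 30 min lysis and 4 h antibody incubation in MIA PaCa2 (KRAS G12C) cells, seeded at 2.5E4 per well and treated 2 h with compounds in 3.16-fold steps, final DMSO 0.1%. IC50 from a four-parameter fit of percent inhibition relative to DMSO and blank wells.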
# T1 sequence (P01116 1-188 isoform P01116-2 G12C): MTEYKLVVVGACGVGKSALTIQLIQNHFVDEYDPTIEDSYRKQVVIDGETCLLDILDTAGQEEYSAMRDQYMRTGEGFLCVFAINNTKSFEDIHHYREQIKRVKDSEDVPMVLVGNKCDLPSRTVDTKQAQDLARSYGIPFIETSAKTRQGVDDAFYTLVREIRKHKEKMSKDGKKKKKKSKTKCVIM
SMILES,IC50 (KRAS G12C) [nM],IC50 [1] [nM]
"C=CC(=O)N1CCN2C(=O)c3c(N4C[C@H](N(C)CCOC)CC4(C)C)nc(-c4ccccc4F)c(Cl)c3OC[C@H]2C1 (single isomer, unassigned) [Z406-1]",31,73
"C=CC(=O)N1CCN2C(=O)c3c(N4C[C@@H](NC)CC4(C)C)nc(-c4ccccc4F)c(Cl)c3OC[C@H]2C1 (single isomer, unassigned) [Z661-1]",33.5,57
"C=CC(=O)N1CCN2C(=O)c3c(N4C[C@@H](N(C)CCO)CC4(C)C)nc(-c4ccccc4F)c(Cl)c3OC[C@H]2C1 (single isomer, unassigned) [Z658-1]",23.8,31
"C=CC(=O)N1CCN2C(=O)c3c(N4C[C@@H](N5CCC5)CC4(C)C)nc(-c4ccccc4F)c(Cl)c3OC[C@H]2C1 (single isomer, unassigned) [Z471-1]",73,188
"C=CC(=O)N1CCN2C(=O)c3c(N4CC[C@H](N(C)C)C4(C)C)nc(-c4ccccc4F)c(Cl)c3OC[C@H]2C1 [Z502-2, (6aR)-8-acryloyl-4-chloro-1-(3-(dimethylamino)-2,2-dimethylpyrrolidin-1-yl)-3-(2-fluorophenyl)-6,6a,7,8,9,10-hexahydro-12H-pyrazino[2,1-c]pyrido[3,4-f][1,4]oxazepin-12(6aH)-one]",160,124
"C=CC(=O)N1CCN2C(=O)c3c(N4C[C@@H](N(C)C)CC4(C)C)nc(-c4ccccc4F)c(Cl)c3OC[C@H]2C1 [Z453-1, (R)-8-acryloyl-4-chloro-1-((S)-4-(dimethylamino)-2,2-dimethylpyrrolidin-1-yl)-3-(2-fluorophenyl)-6,6a,7,8,9,10-hexahydro-12H-pyrazino[2,1-c]pyrido[3,4-f][1,4]oxazepin-12-one]",43.6,116
"C=CC(=O)N1CCN2C(=O)c3c(N4CC(O)CC4(C)C)nc(-c4ccccc4Cl)c(F)c3OC[C@H]2C1 (stereo partly drawn) [Z414-1, (6aR)-8-acryloyl-3-(2-chlorophenyl)-4-fluoro-1-(4-hydroxy-2,2-dimethylpyrrolidin-1-yl)-6,6a,7,8,9,10-hexahydro-12H-pyrazino[2,1-c]pyrido[3,4-f][1,4]oxazepin-12-one]",86.6,103
"C=CC(=O)N1CCN2C(=O)c3c(N4C[C@@H](O)CC4(C)C)nc(-c4ccccc4F)c(F)c3OC[C@H]2C1 (single isomer, unassigned) [Z408-1]",159,305
"C=CC(=O)N1CCN2C(=O)c3c(N4CC(N(C)C)CC4(C)C)nc(-c4cccc(F)c4F)c(Cl)c3OC[C@H]2C1 (single isomer, unassigned) [Z473-2]",76.8,161
"C=CC(=O)N1CCN2C(=O)c3c(N4C[C@@H](N5CC(C#N)C5)CC4(C)C)nc(-c4ccccc4F)c(Cl)c3OC[C@H]2C1 (single isomer, unassigned) [Z637-2]",23.8,68
"C=CC(=O)N1CCN2C(=O)c3c(N4C[C@@H](NCC(F)(F)F)CC4(C)C)nc(-c4ccccc4F)c(Cl)c3OC[C@H]2C1 (single isomer, unassigned) [Z662-1]",23.4,32.6
"C=CC(=O)N1CCN2C(=O)c3c(N4C[C@H](N5CC(F)(F)C5)CC4(C)C)nc(-c4ccccc4F)c(Cl)c3OC[C@H]2C1 (single isomer, unassigned) [Z525-1]",365,1280
"C=CC(=O)N1CCN2C(=O)c3c(N4C[C@@H](N5CCN(C)CC5)CC4(C)C)nc(-c4c(F)cccc4Cl)c(Cl)c3OC[C@H]2C1 (single isomer, unassigned) [Z635-1]",22.7,14
"C=CC(=O)N1CCN2C(=O)c3c(N4C[C@@H](N5CC(OC)C5)CC4(C)C)nc(-c4ccccc4F)c(Cl)c3OC[C@H]2C1 [Z479-1, (R)-8-acryloyl-4-chloro-3-(2-fluorophenyl)-1-((S)-4-(3-methoxyazetidin-1-yl)-2,2-dimethylpyrrolidin-1-yl)-6,6a,7,8,9,10-hexahydro-12H-pyrazino[2,1-c]pyrido[3,4-f][1,4]oxazepin-12-one]",65.2,30
"C=CC(=O)N1CCN2C(=O)c3c(N4C[C@H](N5CC(F)C5)CC4(C)C)nc(-c4ccccc4F)c(F)c3OC[C@H]2C1 [Z654-2, (R)-8-acryloyl-4-fluoro-1-((R)-4-(3-fluoroazetidin-1-yl)-2,2-dimethylpyrrolidin-1-yl)-3-(2-fluorophenyl)-6,6a,7,8,9,10-hexahydro-12H-pyrazino[2,1-c]pyrido[3,4-f][1,4]oxazepin-12-one]",168,167

# Next, values leading:
IC50 (KRAS G12C) [nM],IC50 [1] [nM],SMILES
46.9,34,"C=CC(=O)N1CCN2C(=O)c3c(N4CCN(C)C[C@@H]4C)nc(-c4c(O)cccc4Cl)c(Cl)c3OC[C@H]2C1 [Z452, (6aR)-8-acryloyl-4-chloro-3-(2-chloro-6-hydroxyphenyl)-1-((S)-2,4-dimethylpiperazin-1-yl)-6,6a,7,8,9,10-hexahydro-12H-pyrazino[2,1-c]pyrido[3,4-f][1,4]oxazepin-12-one]"
28.4,24,"C=CC(=O)N1CCN2C(=O)c3c(N4CC(N(C)CCO)CC4(C)C)nc(-c4ccccc4F)c(Cl)c3OC[C@H]2C1 (stereo partly drawn) [Z658, (6aR)-8-acryloyl-4-chloro-3-(2-fluorophenyl)-1-(4-((2-hydroxyethyl)(methyl)amino)-2,2-dimethylpyrrolidin-1-yl)-6,6a,7,8,9,10-hexahydro-12H-pyrazino[2,1-c]pyrido[3,4-f][1,4]oxazepin-12-one]"
125,433,"C=CC(=O)N1CCN2C(=O)c3c(N4C[C@H](N(C)CC(F)(F)F)CC4(C)C)nc(-c4ccccc4F)c(Cl)c3OC[C@H]2C1 (single isomer, unassigned) [Z493]"
13.9,6520,"C=CC(=O)N1CCN2C(=O)c3c(N4CC(C(=O)O)CC4(C)C)nc(-c4c(O)cccc4F)c(Cl)c3OC[C@H]2C1 (stereo partly drawn) [Z458, 1-((6aR)-8-acryloyl-4-chloro-3-(2-fluoro-6-hydroxyphenyl)-12-oxo-6,6a,7,8,9,10-hexahydro-12H-pyrazino[2,1-c]pyrido[3,4-f][1,4]oxazepin-1-yl)-5,5-dimethylpyrrolidine-3-carboxylic acid]"
7.7,11,"C=CC(=O)N1CCN2C(=O)c3c(N4CC(N5CCN(C)CC5)CC4(C)C)nc(-c4c(O)cccc4F)c(Cl)c3OC[C@H]2C1 (stereo partly drawn) [Z467, (6aR)-8-acryloyl-4-chloro-1-(2,2-dimethyl-4-(4-methylpiperazin-1-yl)pyrrolidin-1-yl)-3-(2-fluoro-6-hydroxyphenyl)-6,6a,7,8,9,10-hexahydro-12H-pyrazino[2,1-c]pyrido[3,4-f][1,4]oxazepin-12-one]"
85,129,"C=CC(=O)N1CCN2C(=O)c3c(N4CCCC45CC5)nc(-c4c(O)cccc4F)c(Cl)c3OC[C@H]2C1 [Z56, (6aR)-8-acryloyl-4-chloro-3-(2-fluoro-6-hydroxyphenyl)-1-(4-azaspiro[2.4]heptan-4-yl)-6,6a,7,8,9,10-hexahydro-12H-pyrazino[2,1-c]pyrido[3,4-f][1,4]oxazepin-12-one]"
131,165,"C=CC(=O)N1CCN2C(=O)c3c(N4CCC[C@@]4(C)C(=O)NC)nc(-c4c(O)cccc4F)c(Cl)c3OC[C@H]2C1 [Z462, (2S)-1-((6aR)-8-acryloyl-4-chloro-3-(2-fluoro-6-hydroxyphenyl)-12-oxo-6,6a,7,8,9,10-hexahydro-12H-pyrazino[2,1-c]pyrido[3,4-f][1,4]oxazepin-1-yl)-N,2-dimethylpyrrolidine-2-carboxamide]"

# — patent US20230203060A1 (GENFLEET THERAPEUTICS (SHANGHAI) INC., priority 2020, published 2023)
